Measured values: patent US9493478B2, “Fused ring compound containing furan or salt thereof and pharmaceutical composition comprising same” (YUHAN CORPORATION, priority 2012, dated 2016)

Columns and labels:
Format in all cases: biochemical
PI3K β (p110β/p85α)(h) = PI3K β (p110β/p85α)(h) (Homo sapiens, UniProt P42338); assay: Assay for phosphatidylinositol 3-kinase beta (PI3Kβ) activity, PI3K-HTRF kit; details: TR-FRET; enzyme 0.725 μg/ml, 10 μM PIP2, 10 μM ATP
PI3Kα (p110α/p85α)(h) = PI3Kα (p110α/p85α)(h) (Homo sapiens, UniProt P42336); assay: Assay for phosphatidylinositol 3-kinase alpha (PI3Kα) activity, PI3K-HTRF kit; details: TR-FRET; enzyme 0.3625 μg/ml, 10 μM PIP2, 10 μM ATP
PI3Kδ (p110δ/p85α)(h) = PI3Kδ (p110δ/p85α)(h) (Homo sapiens, UniProt O00329); assay: Assay for phosphatidylinositol 3-kinase delta (PI3Kδ) activity, PI3K-HTRF kit; details: TR-FRET; enzyme 0.725 μg/ml, 10 μM PIP2, 10 μM ATP
PI3Kγ (p120γ)(h) = PI3Kγ (p120γ)(h) (Homo sapiens, UniProt P48736); assay: Assay for phosphatidylinositol 3-kinase gamma (PI3Kγ) activity, PI3K-HTRF kit; details: TR-FRET; enzyme 1.45 μg/ml, 10 μM PIP2, 10 μM ATP
Outline: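 Recombinant PI3Kγ (1.45 μg/ml final) preincubated ~10 min with compound, then reacted with 10 μM PIP2 and 10 μM ATP for 90 min at room temperature. PIP3 detected by HTRF (biotin-PIP3/Eu-PH domain/APC), 665/620 nm ratio after 6 h; IC50 from inhibition relative to controls.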

Chain of PI3K β (p110β/p85α)(h) (P42338 whole entry): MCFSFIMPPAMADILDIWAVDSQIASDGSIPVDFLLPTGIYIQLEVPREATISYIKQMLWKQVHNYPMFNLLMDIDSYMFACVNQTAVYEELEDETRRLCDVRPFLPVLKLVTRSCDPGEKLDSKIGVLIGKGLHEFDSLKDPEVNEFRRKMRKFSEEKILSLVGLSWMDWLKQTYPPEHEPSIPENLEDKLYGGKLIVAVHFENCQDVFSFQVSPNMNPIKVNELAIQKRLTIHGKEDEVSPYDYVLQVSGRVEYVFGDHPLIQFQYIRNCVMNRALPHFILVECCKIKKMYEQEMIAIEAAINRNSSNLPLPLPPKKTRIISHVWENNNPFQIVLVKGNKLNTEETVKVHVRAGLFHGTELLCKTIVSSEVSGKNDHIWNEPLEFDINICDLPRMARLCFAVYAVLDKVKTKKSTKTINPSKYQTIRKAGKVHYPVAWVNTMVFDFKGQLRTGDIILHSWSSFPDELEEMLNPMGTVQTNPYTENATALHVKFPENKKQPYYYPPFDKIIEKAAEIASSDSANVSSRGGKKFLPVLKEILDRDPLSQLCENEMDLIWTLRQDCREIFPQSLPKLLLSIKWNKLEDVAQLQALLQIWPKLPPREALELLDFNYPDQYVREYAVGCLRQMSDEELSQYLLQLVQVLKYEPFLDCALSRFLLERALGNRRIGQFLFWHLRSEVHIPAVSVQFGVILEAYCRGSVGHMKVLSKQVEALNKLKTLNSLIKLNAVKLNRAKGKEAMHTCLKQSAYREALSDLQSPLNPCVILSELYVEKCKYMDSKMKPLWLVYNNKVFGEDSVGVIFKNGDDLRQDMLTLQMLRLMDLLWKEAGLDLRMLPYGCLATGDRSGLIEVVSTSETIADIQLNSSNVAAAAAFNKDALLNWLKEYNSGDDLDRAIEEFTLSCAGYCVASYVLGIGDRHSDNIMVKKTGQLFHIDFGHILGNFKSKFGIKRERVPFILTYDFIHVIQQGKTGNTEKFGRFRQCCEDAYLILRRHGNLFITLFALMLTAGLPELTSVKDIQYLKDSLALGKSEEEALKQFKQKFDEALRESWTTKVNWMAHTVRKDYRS
Chain of PI3K β (p110β/p85α)(h) (P27986 whole entry partner): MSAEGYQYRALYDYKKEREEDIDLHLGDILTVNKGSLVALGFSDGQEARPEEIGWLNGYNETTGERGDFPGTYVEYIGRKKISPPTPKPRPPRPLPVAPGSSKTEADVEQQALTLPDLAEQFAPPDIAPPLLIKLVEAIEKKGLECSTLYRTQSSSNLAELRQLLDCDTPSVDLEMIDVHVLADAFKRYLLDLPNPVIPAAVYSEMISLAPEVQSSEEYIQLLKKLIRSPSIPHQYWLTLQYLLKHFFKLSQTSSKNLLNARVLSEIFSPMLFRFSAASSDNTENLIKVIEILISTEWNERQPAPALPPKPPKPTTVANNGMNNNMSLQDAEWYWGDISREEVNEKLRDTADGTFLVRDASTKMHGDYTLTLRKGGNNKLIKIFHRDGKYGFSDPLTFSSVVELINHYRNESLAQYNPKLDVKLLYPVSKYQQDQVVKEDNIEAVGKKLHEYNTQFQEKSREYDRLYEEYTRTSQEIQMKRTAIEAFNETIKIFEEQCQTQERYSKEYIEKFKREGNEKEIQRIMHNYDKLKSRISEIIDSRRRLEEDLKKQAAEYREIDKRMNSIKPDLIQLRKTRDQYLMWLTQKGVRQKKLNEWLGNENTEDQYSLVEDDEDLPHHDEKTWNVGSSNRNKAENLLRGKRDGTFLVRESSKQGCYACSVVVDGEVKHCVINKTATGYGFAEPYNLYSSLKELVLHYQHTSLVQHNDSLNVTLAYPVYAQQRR
Chain of PI3Kγ (p120γ)(h) (P48736 whole entry, the tested form may be a part): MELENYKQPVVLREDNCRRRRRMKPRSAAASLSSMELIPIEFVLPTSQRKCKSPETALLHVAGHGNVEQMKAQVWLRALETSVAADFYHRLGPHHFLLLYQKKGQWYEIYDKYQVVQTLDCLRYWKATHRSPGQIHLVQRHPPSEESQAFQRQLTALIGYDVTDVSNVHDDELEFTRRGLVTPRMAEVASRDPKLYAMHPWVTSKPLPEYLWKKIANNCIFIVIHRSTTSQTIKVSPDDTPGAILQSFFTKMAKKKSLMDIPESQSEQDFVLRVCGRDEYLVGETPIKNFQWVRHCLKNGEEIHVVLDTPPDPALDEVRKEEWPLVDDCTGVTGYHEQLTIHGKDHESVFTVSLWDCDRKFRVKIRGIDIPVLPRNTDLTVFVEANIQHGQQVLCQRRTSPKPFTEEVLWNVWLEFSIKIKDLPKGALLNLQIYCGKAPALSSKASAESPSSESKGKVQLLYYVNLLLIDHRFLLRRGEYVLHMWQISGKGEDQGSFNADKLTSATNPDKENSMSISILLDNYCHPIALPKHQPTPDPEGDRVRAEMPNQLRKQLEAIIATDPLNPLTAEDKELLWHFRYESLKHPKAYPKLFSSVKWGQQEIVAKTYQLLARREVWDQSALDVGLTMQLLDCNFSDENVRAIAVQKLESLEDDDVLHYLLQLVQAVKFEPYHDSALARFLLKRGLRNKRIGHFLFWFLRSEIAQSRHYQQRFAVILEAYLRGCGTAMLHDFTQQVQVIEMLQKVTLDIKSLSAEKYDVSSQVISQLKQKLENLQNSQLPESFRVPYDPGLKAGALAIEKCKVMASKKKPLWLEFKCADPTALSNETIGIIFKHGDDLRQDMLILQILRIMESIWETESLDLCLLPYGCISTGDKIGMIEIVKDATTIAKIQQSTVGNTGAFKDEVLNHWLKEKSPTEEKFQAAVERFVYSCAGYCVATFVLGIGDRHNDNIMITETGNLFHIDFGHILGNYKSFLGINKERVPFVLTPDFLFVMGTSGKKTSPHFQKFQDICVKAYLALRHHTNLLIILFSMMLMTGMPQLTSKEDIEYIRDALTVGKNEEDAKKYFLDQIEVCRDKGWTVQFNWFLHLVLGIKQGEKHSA
Chain of PI3Kδ (p110δ/p85α)(h) (O00329 whole entry): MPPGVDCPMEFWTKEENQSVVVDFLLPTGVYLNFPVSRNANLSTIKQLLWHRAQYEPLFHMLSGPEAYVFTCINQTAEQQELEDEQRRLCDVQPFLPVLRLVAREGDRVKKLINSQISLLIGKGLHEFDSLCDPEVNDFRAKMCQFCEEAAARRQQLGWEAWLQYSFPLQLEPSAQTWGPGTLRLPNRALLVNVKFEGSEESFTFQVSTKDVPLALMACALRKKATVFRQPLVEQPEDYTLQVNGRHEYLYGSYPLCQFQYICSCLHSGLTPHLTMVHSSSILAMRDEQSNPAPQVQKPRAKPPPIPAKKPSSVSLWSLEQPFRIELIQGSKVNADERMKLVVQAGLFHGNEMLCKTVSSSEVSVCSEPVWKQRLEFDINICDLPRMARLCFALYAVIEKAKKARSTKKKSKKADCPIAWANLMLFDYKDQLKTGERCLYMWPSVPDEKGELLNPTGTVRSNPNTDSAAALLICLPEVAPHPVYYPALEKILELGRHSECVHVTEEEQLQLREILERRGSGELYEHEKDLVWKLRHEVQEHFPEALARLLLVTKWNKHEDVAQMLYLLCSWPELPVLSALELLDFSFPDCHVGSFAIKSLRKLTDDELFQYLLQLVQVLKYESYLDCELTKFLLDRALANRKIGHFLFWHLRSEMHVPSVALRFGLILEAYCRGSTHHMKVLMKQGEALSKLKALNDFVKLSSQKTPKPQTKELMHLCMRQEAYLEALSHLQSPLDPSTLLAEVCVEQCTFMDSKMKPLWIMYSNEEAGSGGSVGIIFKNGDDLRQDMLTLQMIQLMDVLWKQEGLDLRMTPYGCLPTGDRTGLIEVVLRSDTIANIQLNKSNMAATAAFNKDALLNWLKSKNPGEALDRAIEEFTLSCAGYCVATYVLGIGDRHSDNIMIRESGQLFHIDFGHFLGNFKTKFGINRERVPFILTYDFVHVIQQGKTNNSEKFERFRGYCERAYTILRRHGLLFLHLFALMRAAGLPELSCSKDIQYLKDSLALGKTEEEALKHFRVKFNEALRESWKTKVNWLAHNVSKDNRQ
Chain of PI3Kδ (p110δ/p85α)(h) (P27986 whole entry partner): as the sequence (P27986 whole entry partner) above
Chain of PI3Kα (p110α/p85α)(h) (P42336 whole entry): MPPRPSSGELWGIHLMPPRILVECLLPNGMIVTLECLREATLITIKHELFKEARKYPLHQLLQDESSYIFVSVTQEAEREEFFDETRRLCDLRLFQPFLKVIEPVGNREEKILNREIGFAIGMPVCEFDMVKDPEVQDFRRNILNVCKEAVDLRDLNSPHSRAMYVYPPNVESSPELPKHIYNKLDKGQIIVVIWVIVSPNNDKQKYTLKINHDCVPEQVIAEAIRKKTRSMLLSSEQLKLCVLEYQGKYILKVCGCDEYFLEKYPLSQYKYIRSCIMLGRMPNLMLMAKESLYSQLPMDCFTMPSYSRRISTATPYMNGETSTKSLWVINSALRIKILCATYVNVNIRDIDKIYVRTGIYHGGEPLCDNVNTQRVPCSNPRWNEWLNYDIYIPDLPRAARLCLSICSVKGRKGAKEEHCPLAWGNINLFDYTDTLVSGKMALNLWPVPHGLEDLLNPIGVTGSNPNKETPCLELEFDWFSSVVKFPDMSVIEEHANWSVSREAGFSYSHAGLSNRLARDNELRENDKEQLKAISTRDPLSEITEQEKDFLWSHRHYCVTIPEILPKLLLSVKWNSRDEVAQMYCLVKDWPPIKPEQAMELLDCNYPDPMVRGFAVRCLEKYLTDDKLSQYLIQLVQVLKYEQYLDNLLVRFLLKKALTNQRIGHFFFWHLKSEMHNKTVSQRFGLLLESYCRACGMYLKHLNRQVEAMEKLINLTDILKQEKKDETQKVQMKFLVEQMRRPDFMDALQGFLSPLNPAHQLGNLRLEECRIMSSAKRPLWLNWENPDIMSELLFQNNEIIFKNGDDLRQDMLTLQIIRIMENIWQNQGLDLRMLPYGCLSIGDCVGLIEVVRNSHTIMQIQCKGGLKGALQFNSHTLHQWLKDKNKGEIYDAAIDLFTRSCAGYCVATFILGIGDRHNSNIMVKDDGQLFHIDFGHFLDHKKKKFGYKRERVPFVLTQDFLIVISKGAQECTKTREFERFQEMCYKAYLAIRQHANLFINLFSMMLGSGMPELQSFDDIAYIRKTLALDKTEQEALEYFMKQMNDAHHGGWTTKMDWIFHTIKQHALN
Chain of PI3Kα (p110α/p85α)(h) (P27986 whole entry partner): as the sequence (P27986 whole entry partner) above

Structure (SMILES) | IC50 (PI3K β (p110β/p85α)(h)) [nM] | IC50 (PI3Kα (p110α/p85α)(h)) [nM] | IC50 (PI3Kδ (p110δ/p85α)(h)) [nM] | IC50 (PI3Kγ (p120γ)(h)) [nM]
O=C1NC(=O)/C(=C/c2cc3cncc(C(=O)NC4CCCCC4)c3o2)S1 [Example 422, (Z)—N-Cyclohexyl-2-{(2,4-dioxothiazolidin-5-ylidene)methyl}furo[3,2-c]pyridine-7-carboxamide] | 1230 | 31 | 1140 | 204
COc1ccc(NC(=O)c2cncc3cc(/C=C4\SC(=S)NC4=O)oc23)cc1 [Example 425, (Z)—N-(4-Methoxyphenyl)-2-{(4-oxo-2-thioxothiazolidin-5-ylidene)methyl}furo[3,2-c]pyridine-7-carboxamide] | 1140 | 11 | 8330 | 51
O=C1NC(=S)S/C1=C\c1cc2cncc(C(=O)NCc3ccc(Cl)cc3)c2o1 [Example 427, (Z)—N-(4-Chlorobenzyl)-2-{(4-oxo-2-thioxothiazolidin-5-ylidene)methyl}furo[3,2-c]pyridine-7-carboxamide] | 250 | 62 | 1170 | 134
O=C1NC(=O)/C(=C/c2cc3cncc(C#CC4CCCC4)c3o2)S1 [Example 435, (Z)-5-[{7-(Cyclopentylethynyl)furo[3,2-c]pyridin-2-yl}methylene]thiazolidine-2,4-dione] | 4340 | 58 | 4280 | 48
COc1cc(C#Cc2cncc3cc(/C=C4\SC(=O)NC4=O)oc23)cc(OC)c1 [Example 450, (Z)-5-([7-{(3,5-Dimethoxyphenyl)ethynyl}furo[3,2-c]pyridin-2-yl]methylene)thiazolidine-2,4-dione] | 4650 | 8 | > 10000 | 13
Cc1ccccc1C#Cc1cncc2cc(/C=C3\SC(=O)NC3=O)oc12 [Example 454, (Z)-5-[{7-(o-Tolylethynyl)furo[3,2-c]pyridin-2-yl}methylene]thiazolidine-2,4-dione] | 466 | 1 | 143 | 7
COc1ccc(C#Cc2cncc3cc(/C=C4\SC(=O)NC4=O)oc23)cc1OC [Example 469, (Z)-5-([7-{(3,4-Dimethoxyphenyl)ethynyl}furo[3,2-c]pyridin-2-yl]methylene)thiazolidine-2,4-dione] | 5090 | 2 | 37 | 17
O=C1NC(=S)S/C1=C\c1cc2cncc(C#CC3CC3)c2o1 [Example 475, (Z)-5-[{7-(Cyclopropylethynyl)furo[3,2-c]pyridin-2-yl}methylene]-2-thioxothiazolidin-4-one] | > 10000 | 68 | > 10000 | 10
CCOC(C#Cc1cncc2cc(/C=C3\SC(=S)NC3=O)oc12)OCC [Example 483, (Z)-5-[{7-(3,3-Diethoxypropyn-1-yl)furo[3,2-c]pyridin-2-yl}methylene]-2-thioxothiazolidin-4-one] | 184 | 23 | 113 | 33
COc1ccc(C#Cc2cncc3cc(/C=C4\SC(=S)NC4=O)oc23)cc1OC [Example 512, (Z)-5-([7-{(3,4-Dimethoxyphenyl)ethynyl}furo[3,2-c]pyridin-2-yl]methylene)-2-thioxothiazolidin-4-one] | 82 | 2 | 73 | 17
O=C1NC(=O)/C(=C/c2cc3cncc(C#Cc4ccc(Cl)cc4)c3o2)S1 [Example 541, (Z)-5-([7-{(4-Chlorophenyl)ethynyl}furo[3,2-c]pyridin-2-yl]methylene)thiazolidine-2,4-dione] | 104 | 5 | 136 | 27
COC(=O)c1cccc(C#Cc2cncc3cc(/C=C4\SC(=O)NC4=O)oc23)c1 [Example 542, (Z)-Methyl 3-([2-{(2,4-dioxothiazolidin-5-ylidene)methyl}furo[3,2-c]pyridin-7-yl]ethynyl)benzoate] | > 10000 | 3 | 1270 | 24

More lines, now with the values ahead:

IC50 (PI3K β (p110β/p85α)(h)) [nM] | IC50 (PI3Kα (p110α/p85α)(h)) [nM] | IC50 (PI3Kδ (p110δ/p85α)(h)) [nM] | IC50 (PI3Kγ (p120γ)(h)) [nM] | Structure (SMILES)
> 10000 | 8 | > 10000 | 9 | COc1ccc(C#Cc2cncc3cc(/C=C4\SC(=O)NC4=O)oc23)cc1 [Example 437, (Z)-5-([7-{(4-Methoxyphenyl)ethynyl}furo[3,2-c]pyridin-2-yl]methylene)thiazolidine-2,4-dione]
> 10000 | 2 | > 10000 | 10 | O=C1NC(=O)/C(=C/c2cc3cncc(C#Cc4cccc(C(F)(F)F)c4)c3o2)S1 [Example 441, (Z)-5-{(7-[{3-(Trifluoromethyl)phenyl}ethynyl]furo[3,2-c]pyridin-2-yl)methylene}thiazolidine-2,4-dione]
5070 | 25 | 801 | 12 | Cc1cc(C#Cc2cncc3cc(/C=C4\SC(=O)NC4=O)oc23)ccc1F [Example 453, (Z)-5-([7-{(4-Fluoro-3-methylphenyl)ethynyl}furo[3,2-c]pyridin-2-yl]methylene)thiazolidine-2,4-dione]
> 10000 | 4 | > 10000 | 14 | COc1ccccc1C#Cc1cncc2cc(/C=C3\SC(=S)NC3=O)oc12 [Example 486, (Z)-5-([7-{(2-Methoxyphenyl)ethynyl}furo[3,2-c]pyridin-2-yl]methylene)-2-thioxothiazolidin-4-one]
2270 | 2 | 618 | 7 | Cc1ccccc1C#Cc1cncc2cc(/C=C3\SC(=S)NC3=O)oc12 [Example 498, (Z)-2-Thioxo-5-[{7-(o-tolylethynyl)furo[3,2-c]pyridin-2-yl}methylene]thiazolidin-4-one]
715 | 4 | 74 | 11 | N#Cc1ccccc1C#Cc1cncc2cc(/C=C3\SC(=S)NC3=O)oc12 [Example 513, (Z)-2-([2-{(4-Oxo-2-thioxothiazolidin-5-ylidene)methyl}furo[3,2-c]pyridin-7-yl]ethynyl)benzonitrile]
1210 | 6 | 33 | 23 | O=C1NC(=O)/C(=C/c2cc3cncc(C#Cc4ccccc4C(F)(F)F)c3o2)S1 [Example 526]
638 | 8 | 92 | 24 | O=C1NC(=O)/C(=C/c2cc3cncc(C#Cc4ccsc4)c3o2)S1 [Example 528, (Z)-5-[{7-(Thiophen-3-ylethynyl)furo[3,2-c]pyridin-2-yl}methylene]thiazolidine-2,4-dione]
1390 | 5 | 137 | 33 | COC(=O)c1ccc(C#Cc2cncc3cc(/C=C4\SC(=O)NC4=O)oc23)cc1 [Example 532, (Z)-Methyl 4-([2-{(2,4-dioxothiazolidin-5-ylidene)methyl}furo[3,2-c]pyridin-7-yl]ethynyl)benzoate]
3720 | 14 | 2230 | 37 | O=C1NC(=O)/C(=C/c2cc3cncc(C#Cc4ccc(OC(F)(F)F)cc4)c3o2)S1 [Example 533]
